Patent publication EP0558245A1, “Heterobicyclic compounds as antagogists of alpha-1 adrenergic and SHT1A receptors” (priority 1992, dated 1993)
Where a name gives a salt, the structure may show the parent alone. Read-outs that look alike come from different tables or passages of the source.

Assays:
[1] = biological target: α₁ receptors; assay: [3H]prazosin binding (α1 receptors), rat cerebral cortex membranes; settings: rat cerebral cortex crude membranes, [3H]prazosin 0.35 nM, 25°C 30 min; read-out: Receptor Binding IC50 (nM) α1
Description: Rat cerebral cortices were homogenized in 50 volumes of original wet weight of ice-cold 50 mM Tris-HCl buffer pH 7.4. The homogenates were centrifuged at 48,000 x g for 10 minutes, and the pellets were resuspended in the same volume of ice-cold buffer, centrifuged and resuspended two more times. The final pellets obtained were resuspended in the same volume of buffer and incubated according to the conditions reported in the table below.
(§3) The incubations were terminated after the appropriate time (see table) by rapid filtration through Whatman GF/B filters using a Brandel cell harvester. The filters were washed twice with 15 ml of ice-cold buffer (see table). The radioactivity retained on the filters was determined by liquid scintillation counting. Nonspecific binding (which amounted generally to 10-30%) was evaluated by adding high concentrations of the specific displacers (see table). All the compounds were initially tested at 1x10⁻⁶ M concentration, and in the presence of significant displacing activity, a complete competition curve was generated (down to a concentration of 10⁻¹¹ M). All the samples were run in triplicate.

[2] = biological target: T1, 5HT1A receptors (Rattus norvegicus, UniProt P19327); assay: [3H]8-OH-DPAT binding (5HT1A receptors), rat hippocampus membranes; settings: rat hippocampus crude membranes, [3H]8-OH-DPAT 1.0 nM, 25°C 30 min; read-out: Receptor Binding IC50 (nM) 5-HT1a
T1 construct: Rat hippocampi were homogenized; from tissue; host or cells: rat hippocampus membranes
T1 sequence (P19327 1-422): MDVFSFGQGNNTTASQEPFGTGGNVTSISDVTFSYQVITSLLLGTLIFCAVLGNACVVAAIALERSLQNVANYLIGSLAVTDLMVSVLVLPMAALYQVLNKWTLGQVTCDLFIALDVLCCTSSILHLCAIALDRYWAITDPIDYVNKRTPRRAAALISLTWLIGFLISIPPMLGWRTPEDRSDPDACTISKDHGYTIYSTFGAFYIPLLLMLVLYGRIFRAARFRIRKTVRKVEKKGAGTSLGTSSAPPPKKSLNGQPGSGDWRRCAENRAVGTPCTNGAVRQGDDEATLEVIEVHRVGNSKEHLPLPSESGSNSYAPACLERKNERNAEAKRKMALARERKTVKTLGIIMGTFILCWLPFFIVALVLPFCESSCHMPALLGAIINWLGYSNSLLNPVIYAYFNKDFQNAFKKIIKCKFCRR
Description: Rat hippocampi were homogenized in 50 volumes of original wet weight of ice-cold 50 mM Tris-HCl buffer pH 7.4. The homogenates were centrifuged at 48,000 x g for 10 minutes, and the pellets were resuspended in the same volume of ice-cold buffer, incubated for 10 minutes at 37°C, centrifuged and resuspended two more times. The final pellets obtained were resuspended in the same volume of buffer and incubated according to the conditions reported in the table below.
as §3
The competition curves were always analyzed (to evaluate the IC₅₀ values) by non linear curve fitting of the logistic equation according to the method reported by De Lean et al. (Am. J. Physiol., 235, E97, 1978), utilizing the ALLFIT program [publically available from the National Institutes of Health (N.I.H.) Bethesda, Maryland, USA] written for the IBM PC.

[3] = Acute toxicity in mice after intraperitoneal and oral administration; settings: mouse, in vivo
Summary of the method: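 Female albino Swiss mice (20-30 g) dosed i.p. or orally at four log-scaled doses in 0.5% Methocel (10 ml/kg), 4 mice/dose. Mortality recorded at 7 days; LD₅₀ with fiducial limits by Weil's method.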

[4] = test system: noradrenaline induced contraction of urethra; assay: Effects on urethral contractions (noradrenaline-induced) in anaesthetized dogs; format: in vivo; settings: for ED50: Canis lupus familiaris, iv; for DBP/Urethra ratio: ratio between the active doses (selectivity index), * = non-selective: substantial effect on both urethra and DBP
Excerpt: (§1) In order to monitor systemic blood pressure (BP), a PE catheter was introduced into the aortic arch through the right common carotid artery.
(§2) A collateral of the left femoral vein was cannulated for infusion of anaesthetic, and the right femoral vein was cannulated for administration of drugs. For intrarterial (i.a.) injection of noradrenaline (NA), a PE catheter was introduced into the lower portion of abdominal aorta via the right external iliac artery. Through such procedure, NA was selectively distributed to the lower urinary tract. Via a midline laparotomy, the urinary bladder and proximal urethra were exposed. In order to prevent the filling of the bladder, the two ureters were cannulated and the urine led outside. In order to record the prostatic urethral pressure, a Mikro-tip catheter (6 F) was introduced into the bladder via the external urethral meatus, and withdrawn until the pressure transducer was positioned in the prostatic urethra. A ligature was secured between the neck of the bladder and urethra to isolate the response of the latter and avoid any interaction with the bladder. Another ligature was put around the Mikro-tip catheter at the external urethral meatus, to secure the catheter itself. After a stabilizing period following surgical procedure (30 min), in which arterial and prostatic urethral pressure were continuously monitored as basal values, i.a. administration of NA was made at intervals of 10 min. The dose of NA chosen was such to produce an increase of at least 100% in urethral pressure. The test compounds were administered i.v. in a cumulative manner with intervals of 15-20 min between administrations. I.a. injections of NA were repeated approximately 5 min. after every dosing of test compound. Dose response curves were constructed computing the percentage inhibition to the increase in urethral pressure (NA induced), and the percentage drop in blood pressure produced by the test compound.

[5] = test system: diastolic blood pressure; assay: Effects on blood pressure in anaesthetized dogs; format: in vivo; settings: Canis lupus familiaris, iv
Excerpt: as §1, §2

[6] = test system: rat bladder strips; assay: K+-induced contractions of rat bladder strips; format: cell-based; settings: 80 mM KCl, drug added 30 minutes before
Description: The whole bladder of the rat was removed and immediately placed in Krebs solution warmed at 37°C. […] Each strip was placed in a 10 ml organ bath and connected, under a constant load of 1 g, to an isometric strain gauge (DY-1 Basile, Comerio, Varese, Italy). […] After a 60 minutes equilibration period the strips were exposed to 80 mM KCl (final concentration). […] When the tonic contraction was stable, the strips were washed and 30 minutes later a new contraction was induced. After having recorded two or more reproducible responses, one concentration of the tested drugs was added to the bath and 30 minutes later a new contraction was induced. The experimental groups consisted of at least two preparations taken from different animals for each concentration of drug tested. The IC₅₀ values of inhibition of agonist-induced contractions were evaluated by linear regression analysis.

[7] = ip, female albino Swiss mice, intraperitoneal, mortality recorded 7 days after administration, read-out: Acute Toxicity in Mice LD50 (mg/kg) i.p.
[8] = female albino Swiss mice, oral, mortality recorded 7 days after administration, read-out: Acute Toxicity in Mice LD50 (mg/kg) p.o.
[9] = anaesthetized male beagle dogs, i.v. cumulative, active dose in inhibiting by 50% the noradrenaline induced contraction of urethra, read-out: Urethra ED50
[10] = anaesthetized male beagle dogs, i.v. cumulative, active dose in lowering diastolic blood pressure by 25%, read-out: DBP ED25
[11] = phasic contraction, read-out: K+ Stimulation of Rat Bladder IC50 (μM) Contractions Phasic
[12] = tonic contraction, read-out: K+ Stimulation of Rat Bladder IC50 (μM) Contractions Tonic

With `COc1ccccc1N1CCN(CC(O)COc2cccc3c(=O)c(C)c(-c4ccccc4)oc23)CC1.Cl` (stereo not drawn) [Example 45, 8-{2-hydroxy-3-[4-(2-methoxyphenyl)-1-piperazinyl]-propoxy}-3-methyl-4-oxo-2-phenyl-4H-1-benzopyran hydrochloride] the IC50 [1] was 15 nM, the IC50 [2] was 106 nM and the LD50 at 168 h [3, 7] was 329 mg/kg. It also gave an LD50 at 168 h [3, 8] of 1730 mg/kg, an ED50 [4, 9] of 16.4 µg/kg and a DBP/Urethra ratio [4] of 11.3. The ED25 [5, 10] was 186 µg/kg.

For `COc1ccccc1N1CCN(CCCS(=O)(=O)c2cccc3c(=O)c(C)c(-c4ccccc4)oc23)CC1.Cl` [Example 47, 8-{3-[4-(2-methoxyphenyl)-1-piperazinyl]-propylsulphonyl}-3-methyl-4-oxo-2-phenyl-4H-1-benzopyran hydrochloride], the IC50 [1] was 36 nM, the IC50 [2] was 23 nM and the LD50 at 168 h [3, 7] was 330 mg/kg. The LD50 at 168 h [3, 8] was 1050 mg/kg, the IC50 [6, 11] was 2.7 µM and the IC50 [6, 12] was 5.2 µM. For the same molecule, the ED50 [4, 9] was 35 µg/kg, the DBP/Urethra ratio [4] was 15.1 and the ED25 [5, 10] was 530 µg/kg.

`COc1ccccc1N1CCN(CCCC(O)c2cccc3c(=O)c(C)c(-c4ccccc4)oc23)CC1.Cl.O` (stereo not drawn) [Example 21, 8-{1-hydroxy-4-[4-(2-methoxyphenyl)-1-piperazinyl]-butyl}-3-methyl-4-oxo-2-phenyl-4H-1-benzopyran hydrochloride monohydrate] showed an IC50 [1] of 17 nM, an IC50 [2] of 33 nM and an LD50 at 168 h [3, 7] of 297 mg/kg. The LD50 at 168 h [3, 8] was 566 mg/kg, the ED50 ([4]; read-out: Urethra ED50 (µg/kg)) was 6.6 µg/kg and the DBP/Urethra ratio [4] was 19.2. For the same molecule, the ED25 ([5]; read-out: DBP ED25 (µg/kg)) was 127 µg/kg.

`COc1ccccc1N1CCN(CCCNC(=O)c2cccc3c(=O)c(C)c(-c4ccccc4)oc23)CC1` [Example 11, 8-{3-[4-(2-methoxyphenyl)-1-piperazinyl]-propylcarbamoyl}-3-methyl-4-oxo-2-phenyl-4H-1-benzopyran dihydrochloride hemihydrate] gave an IC50 [1] of 29 nM, an IC50 [2] of 9 nM and an LD50 at 168 h [3, 7] of 247 mg/kg. The LD50 at 168 h [3, 8] was 297 mg/kg, the IC50 [6, 11] was 2.9 µM and the IC50 [6, 12] was 3 µM. The ED50 [4, 9] was 1.4 µg/kg, the DBP/Urethra ratio [4] was 278.6 and the ED25 [5, 10] was 390 µg/kg.

`COc1ccccc1N1CCN(CCCCCOc2cccc3c(=O)c(C)c(-c4ccccc4)oc23)CC1.Cl` [Example 42, 8-{5-[4-(2-methoxyphenyl)-1-piperazinyl]-pentyloxy}-3-methyl-4-oxo-2-phenyl-4H-1-benzopyran hydrochloride] gave an IC50 [1] of 111 nM, an IC50 [2] of 39 nM and an LD50 at 168 h [3, 7] of 459 mg/kg. The LD50 at 168 h [3, 8] was 2160 mg/kg, the IC50 [6, 11] was 10 µM and the IC50 [6, 12] was 10 µM. It also gave an ED50 [4, 9] of 31 µg/kg, a DBP/Urethra ratio [4] of 13.0 and an ED25 [5, 10] of 404 µg/kg.

In the case of `COc1ccccc1N1CCN(CCNC(=O)c2cccc3c(=O)c(C)c(-c4ccccc4)oc23)CC1` [Example 13, 8-{2-[4-(2-methoxyphenyl)-1-piperazinyl]-ethylcarbamoyl}-3-methyl-4-oxo-2-phenyl-4H-1-benzopyran monohydrochloride hemihydrate], the IC50 [1] is reported as 68 nM, the IC50 [2] is reported as 229 nM and the LD50 at 168 h [3, 7] is reported as > 1000 mg/kg. The LD50 at 168 h [3, 8] was > 3000 mg/kg, the IC50 [6, 11] was 10 µM and the IC50 [6, 12] was 10 µM. It also gave an ED50 [4, 9] of 16 µg/kg, a DBP/Urethra ratio [4] of 13.4 and an ED25 [5, 10] of 215 µg/kg.

Work on `COc1ccccc1N1CCN(CCCOc2cccc3c(=O)c(C)c(-c4ccccc4)oc23)CC1.Cl.Cl` [Example 40, 8-{3-[4-(2-methoxyphenyl)-1-piperazinyl]-propoxy}-3-methyl-4-oxo-2-phenyl-4H-1-benzopyran dihydrochloride] yielded an IC50 [1] of 75 nM, an IC50 [2] of 83 nM and an LD50 at 168 h [3, 7] of 140 mg/kg. For the same molecule, the LD50 at 168 h [3, 8] was 349 mg/kg, the IC50 [6, 11] was 0.5 µM and the IC50 [6, 12] was 0.9 µM. It also gave an ED50 [4, 9] of 11 µg/kg, a DBP/Urethra ratio [4] of 13.8 and an ED25 [5, 10] of 152 µg/kg.

With `COc1ccccc1N1CCN(CC(O)c2cccc3c(=O)c(C)c(-c4ccccc4)oc23)CC1.Cl` (stereo not drawn) [Example 17, 8-{1-hydroxy-2-[4-(2-methoxyphenyl)-1-piperazinyl]-ethyl}-3-methyl-4-oxo-2-phenyl-4H-1-benzopyran hydrochloride] the IC50 [1] was 59 nM, the IC50 [2] was 910 nM and the LD50 at 168 h [3, 7] was 299 mg/kg. It also gave an LD50 at 168 h [3, 8] of 608 mg/kg, an IC50 [6, 11] of 8.8 µM and an IC50 [6, 12] of 3.8 µM. For the same molecule, the ED50 [4, 9] was 10 µg/kg, the DBP/Urethra ratio [4] was 0.6* and the ED25 [5, 10] was 6.2 µg/kg.

With `COc1cc2nc(N3CCN(C(=O)c4ccco4)CC3)nc(N)c2cc1OC` [Prazosin, 1-(4-amino-6,7-dimethoxy-2-quinazonlinyl)-4-(2-furoyl)-piperazine, reference compound] the ED50 [4, 9] was 3.6 µg/kg, the DBP/Urethra ratio [4] was 1.8* and the “selectivity for the mammalian lower urinary tract (antagonizing urethral contractions versus lowering blood pressure)” value ([4]; statement in words) was “do not exhibit such selectivity”. It also gave an ED25 ([5]; read-out: DBP ED25 (µg/kg)) of 6.6 µg/kg.

Work on `COc1ccccc1N1CCN(CCCCOc2cccc3c(=O)c(C)c(-c4ccccc4)oc23)CC1.Cl.Cl` yielded an LD50 at 168 h ([3]; ip, read-out: Acute Toxicity in Mice LD50 (mg/kg) i.p.) of 399 mg/kg, an LD50 at 168 h ([3]; po, read-out: Acute Toxicity in Mice LD50 (mg/kg) p.o.) of 2240 mg/kg and an ED50 ([4]; read-out: Urethra ED50 (µg/kg)) of 57 µg/kg. For the same molecule, the DBP/Urethra ratio [4] was 13.1 and the ED25 ([5]; read-out: DBP ED25 (µg/kg)) was 745 µg/kg.

`COc1ccccc1N1CCN(CCOCc2cccc3c(=O)c(C)c(-c4ccccc4)oc23)CC1.Cl.Cl` [Example 27, 8-{2-[4-(2-methoxyphenyl)-1-piperazinyl]-ethoxymethyl}-3-methyl-4-oxo-2-phenyl-4H-1-benzopyran dihydrochloride] gave an IC50 [1] of 23 nM, an IC50 [2] of 124 nM and an LD50 at 168 h [3, 7] of 399 mg/kg. The LD50 at 168 h [3, 8] was > 3000 mg/kg, the IC50 [6, 11] was 1 µM and the IC50 [6, 12] was 0.8 µM. For the same molecule, the ED50 [4, 9] was 3.2 µg/kg, the DBP/Urethra ratio [4] was 3.1* and the ED25 [5, 10] was 9.8 µg/kg.

In the case of `Cc1c(-c2ccccc2)oc2c(C(=O)OC(C)(C)CN3CCCCC3)cccc2c1=O.Cl` [Terflavoxate, 8-(1,1-dimethyl-2-piperidino-ethoxycarbonyl)-3-methyl-4-oxo-2-phenyl-4H-1-benzopyran hydrochloride, reference compound], the ED50 [4, 9] is reported as > 10000 µg/kg, the “effect on urethral contractions” value ([4]; statement in words) is reported as “no effect on urethral contractions” and the ED25 [5, 10] is reported as 6060 µg/kg.

`COc1ccccc1N1CCN(CCCOC(=O)c2cccc3c(=O)c(C)c(-c4ccccc4)oc23)CC1.Cl.Cl` [Example 5, 8-{3-[4-(2-methoxyphenyl)-1-piperazinyl]-propoxycarbonyl}-3-methyl-4-oxo-2-phenyl-4H-1-benzopyran dihydrochloride] gave an IC50 [1] of 20 nM, an IC50 [2] of 19 nM and an LD50 at 168 h [3, 7] of 621 mg/kg. The LD50 at 168 h [3, 8] was > 3000 mg/kg, the ED50 [4, 9] was 37 µg/kg and the DBP/Urethra ratio [4] was 29.0. The ED25 [5, 10] was 1070 µg/kg.
